# Source: EP4603088A1, “N-PALMITOYLET[…] USE IN COMBINATION WITH MELOXICAM IN THE TREATMENT OF IN[…]” (priority 2024, dated 2025)
# Values joined by “and” are separate entries in the source; they are usually repeats but may differ in a detail not shown here. Equal values may be shown once.
# How the values were obtained:
# [1] = administered in ultra-micronized form; Nestmann Food Sci Nutr. 2016; cited from earlier work
# [2] = tested on: inflammatory pain induced by Carrageenan; assay: Carrageenan-induced inflammatory pain model, Von Frey test; format: in vivo, male Sprague-Dawley rats; conditions: PEA 3 mg/kg and/or MLX 0.05 mg/kg orally 30 minutes before CAR; 3 and 5 hours after CAR injection; combination p=0.0084 and p=0.0004 vs vehicle
# Method: All analyses were performed using SAS software, version 9.4 (SAS Institute, Cary, NC, USA). P value < 0.05 was considered significant.
# [3] = tested on: LPS-induced inflammatory pain; assay: LPS-induced inflammatory pain model, paw pressure test; format: in vivo, Male Sprague-Dawley rats; conditions: 60 min after LPS
# Method: Male Sprague-Dawley rats were housed in groups of four, in 26x41 cm cages, at a temperature of 23±1°C, with a 12-hour circadian cycle, and water/food "ad libitum" (standard diet). LPS (10 µg in 50 µl of 0.9% NaCl, Sigma-Aldrich) was injected into the plantar surface of the hind paw of the rat following isoflurane anesthesia. Control animals were treated with vehicle alone (0.9% NaCl). Ten minutes before the LPS injection, the compounds to be tested or the vehicle alone (1% CMC) were administered orally, according to the following treatment groups (N=8 where not otherwise specified): • CTRL (healthy animals injected with 0.9% NaCl) • VEIC (animals injected with LPS and treated with vehicle, N=9) • MLX30 (animals injected with LPS and treated with meloxicam 30 mg/kg) • MLX3 (animals injected with LPS and treated with meloxicam 3 mg/kg) • PEA10 (animals injected with LPS and treated with PEA 10 mg/kg) • PEA10+MLX3 (animals injected with LPS and treated with PEA 10 mg/kg + meloxicam 3 mg/kg) • PEA5 (animals injected with LPS and treated with PEA 5 mg/kg) • PEA5 + MLX3 (animals injected with LPS and treated with PEA 5 mg/kg + meloxicam 3 mg/kg).
# Inflammatory pain induced by LPS injection was measured by paw pressure test. Briefly, before and sixty min after LPS injection, increasing pressure at a constant rate (32 g/s) was applied to the ipsilateral paw of the rat using a non-sharp conical support. […] An analgesimeter (Ugo Basile, Varese) was used for this purpose. The results were expressed in terms of analgesic potency, defined as percentage inhibition (mean ± SEM) of inflammatory pain induced by LPS and calculated according to the formula: 100*(treatm-VEIC)/(CTRL-VEIC).
# The results were analyzed via Generalized Linear Model (GLM) followed by post-hoc analysis based on Tukey-Kramer correction for multiple comparisons. […] In order to verify whether the effect of PEA and meloxicam was synergistic, it was analyzed whether the extent of the inhibition of inflammatory pain by LPS was greater for the association of the two substances compared to the substances used individually. […] All analyses were performed using SAS software, version 9.4 (SAS Institute, Cary, NC, USA). P value < 0.05 was considered significant.
# [4] = tested on: CFA-induced inflammatory pain; assay: CFA-induced inflammatory pain model, paw pressure test; format: in vivo, male Sprague-Dawley rats; conditions: meloxicam 3 mg/kg and/or micronized PEA 10 mg/kg, single administration per os on day 7 after CFA; T0-T60; p = 0.1405 (meloxicam), p = 0.9588 (PEA), p < 0.0001 (combination)
# From the text: In the in vivo experimentation, male Sprague-Dawley rats (200-250 g) (Envigo, Varese, Italy) fed "ad libitum" and housed in cages with a controlled sleep/wake cycle were used.
# Before the start of the study, the animals were subjected to a 1-week acclimatization period at the Center for Laboratory Animal Sheltering (Ce.S.A.L.) of the University of Florence, following all experimental procedures and protocols compliant with the principles of care and welfare of laboratory animals approved by the Italian Ministry of Health (Italian Legislative Decree 2014/26), European directives (EU Directive 2010/63) and the ARRIVE guidelines. […]
# All animals were subjected to the paw pressure test at the level of the ipsilateral paw, performed before (T0) or after 15, 30, 45 and 60 minutes after the single administration of the treatment (T15, T30, T45 and T60, respectively). In particular, the nociceptive threshold was calculated with an analgesiometer (Ugo Basile, Varese, Italy) by applying an increasing pressure at constant speed (32 g/s) by means of a non-pointed conical support on the dorsal surface of the ipsilateral paw with respect to the injection of CFA (or vehicle). […]
# The AUC was analyzed by a two-way factor analysis of variance (2x2 ANOVA), after plotting the mean values, according to the procedure shown by Slinker BK. […] The values were expressed as mean ± standard error mean (SEM). […]
SMILES,dose up to which free of acute and sub-chronic toxicity [1],"analgesic effect vs vehicle (Von Frey test, paw retraction) [2]","analgesic potency, percentage inhibition of inflammatory pain induced by LPS (media) ([3]; PEA 5 mg/kg orally 10 min before LPS)","analgesic potency, percentage inhibition of inflammatory pain induced by LPS (media) ([3]; PEA 10 mg/kg orally 10 min before LPS)","effect on the LPS-induced drop of the nociceptive threshold vs LPS vehicle ([3]; meloxicam at 3 mg/kg and 30 mg/kg, PEA at 5 mg/kg and 10 mg/kg, alone or associated with low-dose meloxicam, p<0.0001 for all comparisons)","inflammatory pain tolerance threshold (paw pressure test), effect with respect to CFA [4]","analgesic potency, percentage inhibition of inflammatory pain induced by LPS (media) ([3]; meloxicam 3 mg/kg orally 10 min before LPS, listed as MLX)","analgesic potency, percentage inhibition of inflammatory pain induced by LPS (media) ([3]; meloxicam 30 mg/kg orally 10 min before LPS, listed as MLX)"
"CCCCCCCCCCCCCCCC(=O)NCCO [PEA, N-palmitoylethanolamide]",≥ 1000 mg/kg daily,no analgesic effect significantly different from the vehicle,"26,46% and 26,5%","54,24% and 54,2%",significantly counteracted the pro-algic effect of LPS,no significant effect,,
Cc1cnc(NC(=O)C2=C(O)c3ccccc3S(=O)(=O)N2C)s1 [meloxicam],,,,,,no significant effect,"46,12% and 46,1%","50,49% and 50,5%"
